Measured values taken from patent US20230040021A1 (priority 2019, published 2023).

Key:
[1] = system: HBsAg antigen-specific IFN-γ; set-up: species or system C57BL/6(N) mice; settings: mouse, in vivo
[2] = system: HBcAg antigen-specific IFN-γ; set-up: species or system C57BL/6(N) mice; settings: mouse, in vivo
[3] = system: herpes gE antigen-specific IFN-γ; settings: CpG T1 10 + saponin 5 + gE 5 μg/mouse; FIG. 15
Method: Experimental steps: on Day 7 after the immunization of mice, the spleen lymphocytes were prepared according to a conventional method, and the details were as follows: the spleens were taken aseptically by being cut with sterile forceps and scissors, and placed in a 70 μm cell strainer, which was placed in a plate containing 2 ml of pre-chilled 2% FBS (purchased from GIBCO)-PBS; the spleens were ground using a grinding rod, and the spleen cells entered the plate through the meshes to obtain a cell suspension, and then the suspension was filtered by a 40 μm cell strainer (purchased from BD) and put into a 50 ml sterile centrifuge tube by using a Pasteur pipet; it was centrifuged at 500×g at 4° C. for 5 min; the supernatant was discarded, and then 2 ml of 1×erythrocyte disruption agent (purchased from BD) was added to re-suspend the cells, and the resultant was allowed to stand for 5 min at 4° C., protected from light to disrupt the red blood cells; 10 ml of 2% FBS-PBS was added to terminate the erythrocyte disruption reaction; the resultant was centrifuged at 500×g at 4° C. for 5 min, the supernatant was discarded, and then 5 ml of 2% FBS-PBS was added to re-suspend the cells for later use.
C57BL/6(N) mice, female, 5 weeks old, 48 mice, purchased from Shanghai SLRC Laboratory Animal Co. Ltd.
2) QS-21 (CAS: NO. […]

Substance | immune effect: induced production level of HBsAg-specific IFN-γ [1] | immune effect: induced production level of HBcAg-specific IFN-γ [2] | induced production level of gE-specific IFN-γ [3]
TGTCGTCGTCGTTTGTCGTTTGTCGTT (SEQ ID NO: 11) [CPG D2] | lower than those induced by the CpG adjuvants of type A and the CpG adjuvants of type C | lower than those induced by the CpG adjuvants of type A and the CpG adjuvants of type C | –
TCCATGACGTTCCTGACGTT (SEQ ID NO: 5) [CpG 1826] | superior to the CpG adjuvants of type A and the CpG adjuvants of type C | superior to the CpG adjuvants of type A and the CpG adjuvants of type C | –
TCGTCGTTTTGTCGTTTTGTCGTT (SEQ ID NO: 4) [CpG 7909] | superior to the CpG adjuvants of type A and the CpG adjuvants of type C | superior to the CpG adjuvants of type A and the CpG adjuvants of type C | –
TCGACGTTCGTCGTTCGTCGTTC (SEQ ID NO: 9) [CpG 684] | superior to the CpG adjuvants of type A and the CpG adjuvants of type C | superior to the CpG adjuvants of type A and the CpG adjuvants of type C | –
TGACTGTGAACGTTCGAGATGA (SEQ ID NO: 3) [CpG 1018] | superior to the CpG adjuvants of type A and the CpG adjuvants of type C | superior to the CpG adjuvants of type A and the CpG adjuvants of type C | –
QS-21 [QS21] | – | – | the best effect
